Results taken from PubChem BioAssay (NCI).
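A five-concentration, 48-hour dose response in 96-well plates underlies each endpoint, interpolated linearly between surrounding concentrations. GI50 = concentration required for 50% inhibition of growth. TGI: concentration producing complete growth inhibition.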

Experiments:
Assay in all cases: growth of human tumour cells (NCI), 48 h
A498 renal = test system: A498 renal
CAKI-1 renal = test system: CAKI-1 renal
HCT-15 colon = test system: HCT-15 colon
HL-60(TB) leukemia = test system: HL-60(TB) leukemia
HOP-92 NSCLC = test system: HOP-92 NSCLC
OVCAR-3 ovarian = test system: OVCAR-3 ovarian
OVCAR-8 ovarian = test system: OVCAR-8 ovarian
SK-MEL-2 melanoma = test system: SK-MEL-2 melanoma
UACC-62 melanoma = test system: UACC-62 melanoma
HS 578T breast = test system: HS 578T breast

Compound: CCOC(=O)C1CC(=O)C=C2CCCCC21 (configuration not stated)
- TGI (A498 renal): > 100 µM
- TGI (CAKI-1 renal): > 100 µM
- TGI (HCT-15 colon): > 100 µM
- TGI (HL-60(TB) leukemia): > 100 µM
- TGI (HOP-92 NSCLC): > 100 µM
- TGI (OVCAR-3 ovarian): > 100 µM
- TGI (OVCAR-8 ovarian): > 100 µM
- TGI (SK-MEL-2 melanoma): > 100 µM
- TGI (UACC-62 melanoma): > 100 µM

Compound: COc1ccc(C2c3ccc4ccccc4c3Oc3ncn(CCCn4ccnc4)c(=N)c32)cc1OC (configuration not stated)
- GI50 (A498 renal): 1.5 µM
- TGI (A498 renal): 4.59 µM
- GI50 (CAKI-1 renal): 4.84 µM
- TGI (CAKI-1 renal): 17.8 µM
- GI50 (HCT-15 colon): 3.37 µM
- TGI (HCT-15 colon): 12.8 µM
- GI50 (HL-60(TB) leukemia): 2.04 µM
- TGI (HL-60(TB) leukemia): 4.05 µM
- GI50 (HOP-92 NSCLC): 1.3 µM
- TGI (HOP-92 NSCLC): 6.64 µM
- GI50 (HS 578T breast): 2.26 µM
- TGI (HS 578T breast): 7.46 µM
- GI50 (OVCAR-3 ovarian): 3.44 µM
- TGI (OVCAR-3 ovarian): 11 µM
- GI50 (OVCAR-8 ovarian): 3.16 µM
- TGI (OVCAR-8 ovarian): 11.6 µM
- GI50 (UACC-62 melanoma): 1.9 µM
- TGI (UACC-62 melanoma): 3.74 µM

Compound: Cc1ccc(/C(=N/NS(=O)(=O)c2cc(C)c(Cl)cc2Cl)Sc2cc(Cl)c(C)cc2S(N)(=O)=O)cc1
- GI50 (A498 renal): > 100 µM
- TGI (A498 renal): > 100 µM
- GI50 (CAKI-1 renal): > 100 µM
- TGI (CAKI-1 renal): > 100 µM
- GI50 (HCT-15 colon): > 100 µM
- TGI (HCT-15 colon): > 100 µM
- GI50 (HL-60(TB) leukemia): 70 µM
- TGI (HL-60(TB) leukemia): > 100 µM
- GI50 (HS 578T breast): > 100 µM
- TGI (HS 578T breast): > 100 µM
- GI50 (OVCAR-3 ovarian): 59 µM
- TGI (OVCAR-3 ovarian): > 100 µM
- GI50 (OVCAR-8 ovarian): > 100 µM
- TGI (OVCAR-8 ovarian): > 100 µM
- GI50 (SK-MEL-2 melanoma): > 100 µM
- TGI (SK-MEL-2 melanoma): > 100 µM
- GI50 (UACC-62 melanoma): > 100 µM
- TGI (UACC-62 melanoma): > 100 µM

Compound: C[C@@H]1CC[C@@]2(C)OC(c3ccccc3)[C@H](CO)N2C1=O (some centres not stated)
- TGI (A498 renal): > 100 µM
- TGI (CAKI-1 renal): > 100 µM
- TGI (HCT-15 colon): > 100 µM
- TGI (HOP-92 NSCLC): > 100 µM
- TGI (OVCAR-3 ovarian): > 100 µM
- TGI (OVCAR-8 ovarian): > 100 µM
- TGI (SK-MEL-2 melanoma): > 100 µM
- TGI (UACC-62 melanoma): > 100 µM

Compound: Cc1cc(-c2nc3sc(C)cn3c2/C=N/N=C(N)N)c(C)s1
- GI50 (CAKI-1 renal): 17.4 µM
- TGI (CAKI-1 renal): 32.4 µM
- GI50 (HCT-15 colon): 19.8 µM
- TGI (HCT-15 colon): 40 µM
- GI50 (HL-60(TB) leukemia): > 100 µM
- TGI (HL-60(TB) leukemia): > 100 µM
- GI50 (HOP-92 NSCLC): 3.03 µM
- TGI (HOP-92 NSCLC): 8.21 µM
- GI50 (OVCAR-3 ovarian): 2.04 µM
- TGI (OVCAR-3 ovarian): 9.56 µM
- GI50 (OVCAR-8 ovarian): 17.6 µM
- TGI (OVCAR-8 ovarian): 43.6 µM
- GI50 (SK-MEL-2 melanoma): 40.8 µM
- TGI (SK-MEL-2 melanoma): > 100 µM
- GI50 (UACC-62 melanoma): 16.5 µM
- TGI (UACC-62 melanoma): 30.5 µM

Compound: O=Cc1ccc(-c2ccc(-c3nc4ccccc4s3)cc2)o1
- GI50 (A498 renal): 3.21 µM
- TGI (A498 renal): 18.8 µM
- GI50 (CAKI-1 renal): > 100 µM
- TGI (CAKI-1 renal): > 100 µM
- GI50 (HCT-15 colon): 90.4 µM
- TGI (HCT-15 colon): > 100 µM
- GI50 (HOP-92 NSCLC): 94.3 µM
- TGI (HOP-92 NSCLC): > 100 µM
- GI50 (HS 578T breast): > 100 µM
- TGI (HS 578T breast): > 100 µM
- GI50 (OVCAR-3 ovarian): 16 µM
- TGI (OVCAR-3 ovarian): 74.1 µM
- GI50 (OVCAR-8 ovarian): 70.7 µM
- TGI (OVCAR-8 ovarian): > 100 µM
- GI50 (SK-MEL-2 melanoma): > 100 µM
- TGI (SK-MEL-2 melanoma): > 100 µM
- GI50 (UACC-62 melanoma): > 100 µM
- TGI (UACC-62 melanoma): > 100 µM

Compound: CCCCCCCCCCCCCCCCn1cc[n+](C)c1
- GI50 (A498 renal): 0.109 µM
- TGI (A498 renal): 0.76 µM
- GI50 (CAKI-1 renal): 0.385 µM
- TGI (CAKI-1 renal): 2.33 µM
- GI50 (HCT-15 colon): 0.989 µM
- TGI (HCT-15 colon): 2.15 µM
- GI50 (HL-60(TB) leukemia): 0.129 µM
- TGI (HL-60(TB) leukemia): 0.321 µM
- GI50 (HOP-92 NSCLC): 0.34 µM
- TGI (HOP-92 NSCLC): 1.68 µM
- GI50 (HS 578T breast): 0.383 µM
- TGI (HS 578T breast): 1.75 µM
- GI50 (OVCAR-3 ovarian): 0.286 µM
- TGI (OVCAR-3 ovarian): 1.02 µM
- GI50 (UACC-62 melanoma): 0.538 µM
- TGI (UACC-62 melanoma): 1.88 µM

Compound: O=CN/C=C/c1ccccc1
- TGI (A498 renal): > 100 µM
- TGI (CAKI-1 renal): > 100 µM
- TGI (HCT-15 colon): > 100 µM
- TGI (HL-60(TB) leukemia): > 100 µM
- TGI (HOP-92 NSCLC): > 100 µM
- TGI (OVCAR-3 ovarian): > 100 µM
- TGI (OVCAR-8 ovarian): > 100 µM
- TGI (SK-MEL-2 melanoma): > 100 µM
- TGI (UACC-62 melanoma): > 100 µM
